According to patent US11999727B2 (Tango Therapeutics, Inc., priority 2020, dated 2024):
Where two headings read alike, the source gives them in different places.

How the values were obtained:
[1] = target: T1, PRMT5 (Homo sapiens, UniProt O14744); test: PRMT5 biochemical IC50 assay with MTA as cofactor; settings: PRMT5, MTA as cofactor; read-out: MTA IC50
T1 construct: purchased Viva (custom protein)

[2] = target: T1, PRMT5; test: PRMT5 biochemical IC50 assay with SAM as cofactor; settings: PRMT5, SAM as cofactor; read-out: SAM IC50
[3] = system: HAP1 MTAP-deleted cell line; test: SDMA in-cell western assay, HAP1 MTAP-deleted; format: cell-based; settings: for IC50: HAP1 MTAP-deleted, read-out: HAP 1 MTAP deleted IC50; for MTAP intact/deleted ratio: IC50 ratio HAP1 MTAP-intact / HAP1 MTAP-deleted
Method in brief: (§1)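 Isogenic HAP1 pair: the MTAP-intact line expresses endogenous MTAP, and the deleted line is MTAP-null. Symmetric dimethylarginine was detected by in-cell western and IC50 values derived for each line.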

[4] = system: HAP1 MTAP-intact cell line; test: SDMA in-cell western assay, HAP1 MTAP-intact; format: cell-based; settings: HAP1 MTAP-intact, read-out: MTAP HAP1 intact IC50
Method in brief: as §1

[5] = target: T1, PRMT5; test: PRMT5 biochemical IC50 assay with no cofactor; settings: PRMT5, no cofactor; read-out: No Cofactor/ rel IC50
Description: Table 1 indicates IC50 values (μM) against PRMT5 for exemplary compounds in the presence of SAM as cofactor, with no cofactor, and with MTA as cofactor, respectively (columns 4-6). […] Ki values can be calculated from the IC50 values as described in the Examples section. As detailed in the Examples section, for the assay performed in the presence of SAM, IC50=Ki×1.5 (Ki=IC50/1.5).

[6] = system: HAP1 MTAP-deleted cell line; test: Viability assay, MTAP-deleted cell line; format: cell-based; settings: HAP1 MTAP-deleted cell line, read-out: HAP1 MTAP deleted viability
Description: Table 1 additionally indicates IC50 values in a viability assay for the MTAP-deleted cell line (column 10), indicating the effect of treatment with compound on cell survival.

[7] = Homo sapiens, HAP1, SDMA in-cell western

T1 sequence (O14744 whole entry): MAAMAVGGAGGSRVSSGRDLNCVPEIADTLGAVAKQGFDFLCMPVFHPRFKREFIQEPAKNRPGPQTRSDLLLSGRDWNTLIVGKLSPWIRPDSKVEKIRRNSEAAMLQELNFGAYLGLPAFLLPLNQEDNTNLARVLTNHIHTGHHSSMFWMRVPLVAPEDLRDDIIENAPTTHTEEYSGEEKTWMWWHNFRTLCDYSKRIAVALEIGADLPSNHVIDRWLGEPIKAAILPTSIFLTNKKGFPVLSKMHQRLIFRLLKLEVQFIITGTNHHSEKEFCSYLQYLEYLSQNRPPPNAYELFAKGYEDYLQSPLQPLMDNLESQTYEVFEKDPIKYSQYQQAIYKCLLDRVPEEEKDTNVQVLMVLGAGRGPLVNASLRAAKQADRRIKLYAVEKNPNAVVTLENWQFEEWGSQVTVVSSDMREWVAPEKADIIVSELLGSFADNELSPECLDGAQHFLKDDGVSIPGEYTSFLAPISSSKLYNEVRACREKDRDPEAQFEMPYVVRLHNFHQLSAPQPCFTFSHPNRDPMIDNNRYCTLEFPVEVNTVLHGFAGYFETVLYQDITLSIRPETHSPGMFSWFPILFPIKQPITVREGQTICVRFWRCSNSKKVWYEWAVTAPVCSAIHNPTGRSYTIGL
T1 sequence (Q9BQA1 whole entry partner): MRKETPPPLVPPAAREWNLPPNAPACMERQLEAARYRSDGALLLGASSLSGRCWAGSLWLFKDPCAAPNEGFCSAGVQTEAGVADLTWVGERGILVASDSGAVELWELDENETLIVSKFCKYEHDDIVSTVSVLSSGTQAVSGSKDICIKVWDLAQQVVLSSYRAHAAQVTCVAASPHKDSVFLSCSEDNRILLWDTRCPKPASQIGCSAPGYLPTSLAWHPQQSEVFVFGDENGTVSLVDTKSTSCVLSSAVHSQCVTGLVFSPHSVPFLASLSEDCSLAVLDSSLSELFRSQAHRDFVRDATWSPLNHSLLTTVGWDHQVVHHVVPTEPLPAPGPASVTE

Structure (SMILES) | IC50 [1] [nM] | IC50 [2] [nM] | IC50 [3, 7] [nM] | IC50 [4, 7] [nM] | IC50 [5] [nM] | IC50 ([3]; SDMA in-cell western) [nM] | IC50 ([4]; SDMA in-cell western) [nM] | MTAP intact/deleted ratio ([3]; SDMA in-cell western) | IC50 ([6]; Homo sapiens, HAP1, viability) [nM] | IC50 ([6]; viability) [nM]
C[C@H]1CC[C@H](c2ccc3sc(CCN(C)C)nc3c2)N(C(=O)C(=O)Nc2cnc(N)c(C3CC3)c2)C1 (single isomer, unassigned) [Compound 1331] | > 500 | > 500 | 100 to 1000 | > 1000 | > 500 |  |  | A (an IC50 ratio greater than or equal to 10 fold) | 1000 to 10000 | 
C[C@@H]1CC[C@@H](c2ccc3cncn3c2)N(C(=O)C(=O)Nc2cnc(N)c(C3CC3)c2)C1 (single isomer, unassigned) [Compound 1336, N-(6-amino-5-cyclopropylpyridin-3-yl)-2-(2-(imidazo[1,5-a]pyridin-6-yl)-5-methylpiperidin-1-yl)-2-oxoacetamide] | > 500 | > 500 | 100 to 1000 | > 1000 | > 500 |  |  |  | 1000 to 10000 | 
COc1ncc(NC(=O)C(=O)N2C[C@@H](C)[C@@H](OC)C[C@@H]2c2ccc3scnc3c2)cc1C(N)=O (single isomer, unassigned) [Compound 1344] | > 500 | > 500 | 100 to 1000 | > 1000 | > 500 |  |  |  | 1000 to 10000 | 
Cc1cc(NC(=O)C(=O)N2C[C@H](C)CC[C@H]2c2ccc(CCN(C)C)cc2)cnc1N (single isomer, unassigned) [Compound 1358] | < 50 | 50 to 500 | < 100 | < 100 | < 50 |  |  | A (an IC50 ratio greater than or equal to 10 fold) | < 1000 | 
CCc1cc(NC(=O)C(=O)N2C[C@@H](C)CC[C@@H]2c2ccc(N3CCN(CC)CC3)cc2)cnc1N (single isomer, unassigned) [Compound 1360] | > 500 | > 500 | > 1000 | > 1000 | > 500 |  |  |  | > 10000 | 
C[C@@H]1CC[C@@H](c2ccc3[nH]ncc3c2)N(C(=O)C(=O)Nc2cnc(N)c(C3CC3)c2)C1 (single isomer, unassigned) [Compound 1361] | > 500 | > 500 | > 1000 | > 1000 | > 500 |  |  |  | > 10000 | 
COc1ncc(NC(=O)C(=O)N2C[C@H](C)[C@H](OC)C[C@H]2c2ccc3scnc3c2)cc1C(N)=O (single isomer, unassigned) [Compound 1364] | < 50 | 50 to 500 | < 100 | 100 to 1000 | < 50 |  |  | A (an IC50 ratio greater than or equal to 10 fold) | < 1000 | 
CO[C@H]1C[C@H](c2ccc3scnc3c2)N(C(=O)C(=O)Nc2cnc(N)c(C3CC3)c2)C[C@H]1C (single isomer, unassigned) [Compound 1370] | < 50 | 50 to 500 | < 100 | < 100 | < 50 |  |  | A (an IC50 ratio greater than or equal to 10 fold) | < 1000 | 
CCc1cc(NC(=O)C(=O)N2C[C@@H](C)CC[C@@H]2c2ccc(N3CCN(C)CC3)cc2)cnc1N (single isomer, unassigned) [Compound 1371] | < 50 | 50 to 500 | < 100 | 100 to 1000 | < 50 |  |  | A (an IC50 ratio greater than or equal to 10 fold) | < 1000 | 
CCc1cc(NC(=O)C(=O)N2C[C@H](C)CC[C@H]2c2ccc3c(cnn3CCN(C)C)c2)cnc1N (single isomer, unassigned) [Compound 1374] | < 50 | 50 to 500 | < 100 | 100 to 1000 | < 50 |  |  | A (an IC50 ratio greater than or equal to 10 fold) | < 1000 | 
CCc1cc(NC(=O)C(=O)N2C[C@H](C)CC[C@H]2c2ccc3sc(CCOC)nc3c2)cnc1N (single isomer, unassigned) [Compound 1375] | > 500 | > 500 | > 1000 | > 1000 | > 500 |  |  |  | > 10000 | 
CCc1cc(NC(=O)C(=O)N2C[C@@H](C)CC[C@@H]2c2ccc3sc(CCOC)nc3c2)cnc1N (single isomer, unassigned) [Compound 1386] | < 50 | 50 to 500 | < 100 | 100 to 1000 | < 50 |  |  | A (an IC50 ratio greater than or equal to 10 fold) | < 1000 | 

Now from value to compound, other results behind:

IC50 [1] [nM] | IC50 [2] [nM] | IC50 [3, 7] [nM] | IC50 [4, 7] [nM] | IC50 [5] [nM] | IC50 ([3]; SDMA in-cell western) [nM] | IC50 ([4]; SDMA in-cell western) [nM] | Structure (SMILES) | MTAP intact/deleted ratio ([3]; SDMA in-cell western) | IC50 ([6]; Homo sapiens, HAP1, viability) [nM] | IC50 ([6]; viability) [nM]
< 50 | 50 to 500 | < 100 | 100 to 1000 | 50 to 500 |  |  | COCCc1nc2cc([C@@H]3CC[C@@H](C)CN3C(=O)C(=O)Nc3cnc(N)c(C4CC4)c3)ccc2s1 (single isomer, unassigned) [Compound 1332] |  | < 1000 | 
< 50 | < 50 | < 100 | < 100 | < 50 |  |  | C[C@H]1CC[C@H](c2ccc3sc(C4CCN(C)CC4)nc3c2)N(C(=O)C(=O)Nc2cnc(OC(F)(F)F)c(C(N)=O)c2)C1 (single isomer, unassigned) [Compound 1337] | B (an IC50 ratio greater than or equal to 3 fold but lower than 10 fold) | < 1000 | 
< 50 | 50 to 500 | < 100 | 100 to 1000 | < 50 |  |  | CCc1cc(NC(=O)C(=O)N2C[C@@H](C)CC[C@@H]2c2ccc(N3CCOC4(CN(C)C4)C3)cc2)cnc1N (single isomer, unassigned) [Compound 1339] | A (an IC50 ratio greater than or equal to 10 fold) | < 1000 | 
< 50 | 50 to 500 | < 100 | 100 to 1000 | < 50 |  |  | Cc1cc(NC(=O)C(=O)N2C[C@@H](C)CC[C@@H]2c2cc(F)c3[nH]ncc3c2)cnc1N (single isomer, unassigned) [Compound 1350] | A (an IC50 ratio greater than or equal to 10 fold) | < 1000 | 
< 50 | < 50 | < 100 | < 100 | < 50 |  |  | Cc1cc(NC(=O)C(=O)N2C[C@H](C)[C@H](OC(C)C)C[C@H]2c2ccccc2)cnc1N (single isomer, unassigned) [Compound 1351] | B (an IC50 ratio greater than or equal to 3 fold but lower than 10 fold) | < 1000 | 
< 50 | 50 to 500 |  |  | < 50 | < 100 | 100 to 1000 | CCc1cc(NC(=O)C(=O)N2C[C@@H](C)CC[C@@H]2c2cccc([C@H]3CCCN(C)C3)c2)cnc1N (single isomer, unassigned) [Compound 1353] | A (an IC50 ratio greater than or equal to 10 fold) |  | < 1000
< 50 | 50 to 500 | < 100 | < 100 | 50 to 500 |  |  | CCc1cc(NC(=O)C(=O)N2C[C@H](C)C(F)(F)C[C@H]2c2ccc3[nH]ncc3c2)cnc1N (single isomer, unassigned) [Compound 1357, N-(6-amino-5-ethylpyridin-3-yl)-2-(4,4-difluoro-2-(1H-indazol-5-yl)-5-methylpiperidin-1-yl)-2-oxoacetamide] | A (an IC50 ratio greater than or equal to 10 fold) | < 1000 | 
